Biological target: T1, Recombinant human H-PGDS (Homo sapiens, UniProt O60760)
T1 construct: made in house; host or cells: E. coli
Experiment: H-PGDS inhibitory activity (prostaglandin D2 production from prostaglandin H2, measured by LC-MS/MS)
Format: biochemical
Details: recombinant human H-PGDS 1.0 nM expressed in E. coli; prostaglandin H2 25 μM; preincubated 15 minutes on ice, reacted on ice for 1 minute; concentration that inhibits prostaglandin D2 production by 50%
Experimental: The H-PGDS inhibitory activity of each Example compound was measured according to the method reported by LIN, Jiang. et al. (NO 2007/041634).
Recombinant human H-PGDS (final concentration: 1.0 nM) expressed in E. coli was mixed in an assay buffer containing 20 mM Tris-HCl (pH 8.0), 2 mM magnesium chloride, 2 mM reduced glutathione, and 0.5 mg/mL γ-globulin, and 150 μL of the mixture was dispensed into a 8-strip PCR tube (BM Equipment Co., Ltd.). Test compounds (Example compounds) (16.5 μL) at various concentrations dissolved in DMSO were added and the mixture was preincubated for 15 minutes on ice.
Prostaglandin H2 (final concentration: 25 μM) (Cayman Chemical) was dispensed into another 8-strip PCR tube, and the solvent was dried and solidified using a vacuum concentrator (Thermo Fisher Scientific). To the dried and solidified prostaglandin H2 was added 50 μL of the assay buffer containing H-PGDS and each test compound after the preincubation, and the mixture was reacted on ice for 1 minute. 45 μL of this mixture was added to 45 μL of a stop solution (50 mM aqueous citric acid solution containing iron chloride at a final concentration of 4 mg/mL) to stop the reaction. Then, the reaction solution was deproteinized, added to a 96 square deep well plate (SHONANMARUHACHI STEC Co., Ltd.), and the prostaglandin D2 concentration in the reaction solution was measured by LC-MS/MS. ACQUITY (registered trademark) TQD (Waters) was used as a measuring instrument.
Prostaglandin Da production activity (f) in the group with each test compound when a value obtained by subtracting the amount of production of prostaglandin D2 in the group without enzyme, which is non-specific production of prostaglandin D2, from the amount of production of prostaglandin Da in the group without test compound (DMSO-addition group) in each 8-strip PCR tube is 100% was calculated.

T1 sequence (O60760 whole entry): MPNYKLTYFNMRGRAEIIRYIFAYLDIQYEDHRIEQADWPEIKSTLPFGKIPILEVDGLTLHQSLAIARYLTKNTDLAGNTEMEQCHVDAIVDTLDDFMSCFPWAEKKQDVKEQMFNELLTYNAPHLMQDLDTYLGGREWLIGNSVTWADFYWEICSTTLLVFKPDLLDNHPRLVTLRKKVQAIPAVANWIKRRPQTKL

IC50	SMILES
2 nM	CO[C@H]1CC[C@H](NC(=O)c2ccc(-c3nccc4occc34)cc2)CC1 [Example 285, 4-(furo[3,2-c]pyridin-4-yl)-N-(trans-4-methoxycyclohexyl)benzamide]
5.2 nM	O=C(N[C@H]1C[C@@H](O)C1)c1ccc(-c2nccc3occc23)cc1 [Example 269, 4-(furo[3,2-c]pyridin-4-yl)-N-(cis-3-hydroxycyclobutyl)benzamide]
1.2 nM	O=C(NC1CCN(c2cnccn2)CC1)c1ccc(-c2nccc3occc23)cc1 [Example 145, 4-(furo[3,2-c]pyridin-4-yl)-N-[1-(pyrazin-2-yl)piperidin-4-yl]benzamide]
3.5 nM	O=C(N[C@H]1CC[C@@](O)(C(F)(F)F)CC1)c1ccc(-c2nccc3occc23)cc1 [Example 264, 4-(furo[3,2-c]pyridin-4-yl)-N-[trans-4-hydroxy-4-(trifluoromethyl)cyclohexyl]benzamide]
1.7 nM	COc1cnc(N2CCC(NC(=O)c3ccc(-c4nccc5occc45)cc3)CC2)nc1 [Example 168, 4-(furo[3,2-c]pyridin-4-yl)-N-[1-(5-methoxypyrimidin-2-yl)piperidin-4-yl]benzamide]
1.5 nM	O=C(NC1CCN(c2ncccc2F)CC1)c1ccc(-c2nccc3occc23)cc1 [Example 144, N-[1-(3-fluoropyridin-2-yl)piperidin-4-yl]-4-(furo[3,2-c]pyridin-4-yl)benzamide]
4.3 nM	CC(=O)N(C(C)=O)c1cnc(N2CCC(NC(=O)c3ccc(-c4nccc5occc45)cc3)CC2)nc1 [Example 188, N-{1-[5-(N-acetylacetamide)pyrimidin-2-yl]piperidin-4-yl}-4-(furo[3,2-c]pyridin-4-yl)benzamide]
39 nM	CO[C@H]1CN(c2ncc(CO)cn2)C[C@H]1NC(=O)c1ccc(-c2nccc3occc23)cc1 [Example 206, 4-(furo[3,2-c]pyridin-4-yl)-N-((3R,4S)-1-[5-(hydroxymethyl)pyrimidin-2-yl]-4-methoxypyrrolidin-3-yl)benzamide]
11 nM	COCCN[C@H]1CC[C@H](NC(=O)c2ccc(-c3nccc4occc34)cc2)CC1 [Example 301, 4-(furo[3,2-c]pyridin-4-yl)-N-{trans-4-[(2-methoxyethyl)amino]cyclohexyl}benzamide]
1.4 nM	O=C(N[C@H]1CCN(c2cc(Cl)ncn2)C1)c1ccc(-c2nccc3occc23)cc1 [Example 227, (S)—N-[1-(6-chloropyrimidin-4-yl)pyrrolidin-3-yl]-4-(furo[3,2-c]pyridin-4-yl)benzamide]
1.3 nM	O=C(N[C@@H]1C[C@H]2C[C@@H](O)C[C@H]2C1)c1ccc(-c2nccc3occc23)cc1 [Example 282, 4-(furo[3,2-c]pyridin-4-yl)-N-[(2r,3aR,5r,6aS)-5-hydroxyoctahydropentalen-2-yl]benzamide]
1.1 nM	Cn1cnc(CO)c1N1CCC(NC(=O)c2ccc(-c3nccc4occc34)cc2)CC1 [Example 253, 4-(furo[3,2-c]pyridin-4-yl)-N-{1-[4-(hydroxymethyl)-1-methyl-1H-imidazol-5-yl]piperidin-4-yl}benzamide]
3.5 nM	O=C(NC1CC2(C1)CN(c1ncccn1)C2)c1ccc(-c2nccc3occc23)cc1 [Example 210, 4-(furo[3,2-c]pyridin-4-yl)-N-[2-(pyrimidin-2-yl)-2-azaspiro[3.3]heptan-6-yl]benzamide]
1.1 nM	O=C(N[C@H]1CC[C@H](NCC(F)F)CC1)c1ccc(-c2nccc3occc23)cc1 [Example 294, N-{trans-4-[(2,2-difluoroethyl)amino]cyclohexyl}-4-(furo[3,2-c]pyridin-4-yl)benzamide]
2.3 nM	O=C(N[C@H]1CCN(c2cnc(CO)cn2)C1)c1ccc(-c2nccc3occc23)cc1 [Example 198, (S)-4-(furo[3,2-c]pyridin-4-yl)-N-{1-[5-(hydroxymethyl)pyrazin-2-yl]pyrrolidin-3-yl}benzamide]
1 nM	N#Cc1cc(N2CCC(NC(=O)c3ccc(-c4nccc5occc45)cc3)CC2)ccn1 [Example 166, N-[1-(2-cyanopyridin-4-yl)piperidin-4-yl]-4-(furo[3,2-c]pyridin-4-yl)benzamide]
4.1 nM	Cc1cccnc1N1CCC(NC(=O)c2ccc(-c3nccc4occc34)cc2)CC1 [Example 153, 4-(furo[3,2-c]pyridin-4-yl)-N-[1-(3-methylpyridin-2-yl)piperidin-4-yl]benzamide]
6.1 nM	O=C(N[C@H]1CCN(c2ccc(CO)cn2)C1)c1ccc(-c2nccc3occc23)cc1 [Example 197, (S)-4-(furo[3,2-c]pyridin-4-yl)-N-{1-[5-(hydroxymethyl)pyridin-2-yl]pyrrolidin-3-yl}benzamide]

Second part, the compound before the results:

SMILES	IC50
Cn1cncc1CNC(=O)c1ccc(-c2nccc3[nH]ccc23)cc1 [Example 41, N-[(1-methyl-1H-imidazol-5-yl)methyl]-4-(1H-pyrrolo[3,2-c]pyridin-4-yl)benzamide]	0.63 nM
O=C(NCC(O)CO)c1ccc(-c2nccc3[nH]ccc23)cc1 (stereo not drawn) [Example 34, N-(2,3-dihydroxypropyl)-4-(1H-pyrrolo[3,2-c]pyridin-4-yl)benzamide]	2.4 nM
CC(O)CNC(=O)c1ccc(-c2nccc3[nH]ccc23)cc1 (stereo not drawn) [Example 31, N-(2-hydroxypropyl)-4-(1H-pyrrolo[3,2-c]pyridin-4-yl)benzamide]	1.5 nM
CC(C)(O)[C@H]1CC[C@H](NC(=O)c2ccc(-c3nccc4occc34)c(O)c2)CC1 [Example 134, 4-(furo[3,2-c]pyridin-4-yl)-3-hydroxy-N-[trans-4-(2-hydroxypropan-2-yl)cyclohexyl]benzamide]	6.6 nM
O=C(NC[C@H]1C[C@@H](O)C1)c1ccc(-c2nccc3occc23)cc1 [Example 219, 4-(furo[3,2-c]pyridin-4-yl)-N-[(cis-3-hydroxycyclobutyl)methyl]benzamide]	12 nM
O=C(NCc1cc[nH]n1)c1ccc(-c2nccc3[nH]ccc23)cc1 [Example 54, N-[(1H-pyrazol-3-yl)methyl]-4-(1H-pyrrolo[3,2-c]pyridin-4-yl)benzamide]	1.2 nM
CS(=O)(=O)c1ccc(NC(=O)c2ccc(-c3nccc4occc34)cc2)cc1 [Example 109, 4-(furo[3,2-c]pyridin-4-yl)-N-[4-(methylsulfonyl)phenyl]benzamide]	2.9 nM
O=C(Nc1ccccc1)c1ccc(-c2nccc3[nH]ccc23)cc1 [Example 16, N-phenyl-4-(1H-pyrrolo[3,2-c]pyridin-4-yl)benzamide]	1.1 nM
O=C(N[C@H]1CC[C@H](N2CCCCC2=O)CC1)c1ccc(-c2nccc3occc23)cc1 [Example 300, 4-(furo[3,2-c]pyridin-4-yl)-N-[trans-4-(2-oxopiperidin-1-yl)cyclohexyl]benzamide]	4.7 nM
O=C(NCc1ccncc1)c1ccc(-c2nccc3[nH]ccc23)cc1 [Example 11, N-(pyridin-4-ylmethyl)-4-(1H-pyrrolo[3,2-c]pyridin-4-yl)benzamide]	1.7 nM
Cc1cc2occc2c(-c2ccc(C(=O)N[C@H]3CC[C@H](C(C)(C)O)CC3)cc2)n1 [Example 127, N-[trans-4-(2-hydroxypropan-2-yl)cyclohexyl]-4-(6-methylfuro[3,2-c]pyridin-4-yl)benzamide]	1.6 nM
O=C(Nc1ccc(N2CCC(C(=O)N3CCOCC3)CC2)cc1)c1ccc(-c2nccc3occc23)cc1 [Example 222, 4-(furo[3,2-c]pyridin-4-yl)-N-(4-[4-(morpholine-4-carbonyl)piperidin-1-yl]phenyl)benzamide]	2.3 nM
O=C(NC1CC1)c1ccc(-c2nccc3[nH]ccc23)cc1 [Example 14, N-cyclopropyl-4-(1H-pyrrolo [3,2-c]pyridin-4-yl)benzamide]	1.4 nM
CCCCCCNC(=O)c1ccc(-c2nccc3occc23)cc1 [Example 76, 4-(furo[3,2-c]pyridin-4-yl)-N-hexylbenzamide]	13 nM
COCCNC(=O)c1ccc(-c2nccc3occc23)cc1 [Example 78, 4-(furo[3,2-c]pyridin-4-yl)-N-(2-methoxyethyl) benzamide]	50 nM
O=C(NCc1cccc(CO)c1)c1ccc(-c2nccc3occc23)cc1 [Example 66, 4-(furo[3,2-c]pyridin-4-yl)-N-[3-(hydroxymethyl)benzyl]benzamide]	6.4 nM
Cc1cnc(-c2ccc(C(=O)N[C@H]3CC[C@H](C(C)(C)O)CC3)cc2)c2cc[nH]c12 [Example 339, N-[trans-4-(2-hydroxypropan-2-yl)cyclohexyl]-4-(7-methyl-1H-pyrrolo[3,2-c]pyridin-4-yl)benzamide]	1.4 nM
CC(C)(O)[C@H]1CC[C@H](NC(=O)c2ccc(-c3nccc4occc34)c(F)c2)CC1 [Example 125, 3-fluoro-4-(furo[3,2-c]pyridin-4-yl)-N-[trans-4-(2-hydroxypropan-2-yl)cyclohexyl]benzamide]	2.2 nM

From patent US20230339937A1, “CONDENSED RING COMPOUNDS THAT INHIBIT H-PGDS” (SATO PHARMACEUTICAL CO., LTD., priority 2020, published 2023)
